In BigSolDB 2.1:

**Q.** What does the source list for COc1cc2c(cc1OC)C(=O)C(CC1CCN(Cc3ccccc3)CC1)C2.Cl (stereo not drawn)?
**A.** solubility (mole fraction) (in DMF, 278.15 K): 0.00119; solubility (mole fraction) (in DMF, 283.15 K): 0.00135; solubility (mole fraction) (in DMF, 288.15 K): 0.00152; solubility (mole fraction) (in DMF, 293.15 K): 0.00173; solubility (mole fraction) (in DMF, 298.15 K): 0.00196; solubility (mole fraction) (in DMF, 303.15 K): 0.00222; solubility (mole fraction) (in DMF, 308.15 K): 0.00251; solubility (mole fraction) (in DMF, 313.15 K): 0.00286; solubility (mole fraction) (in DMF, 318.15 K): 0.00325; solubility (mole fraction) (in DMF, 323.15 K): 0.00368; solubility (mole fraction) (in DMF, 328.15 K): 0.00418; solubility (mole fraction) (in DMF, 333.15 K): 0.00476; solubility (mole fraction) (in ethanol, 278.15 K): 0.000291; solubility (mole fraction) (in ethanol, 283.15 K): 0.000379; solubility (mole fraction) (in ethanol, 288.15 K): 0.000484; solubility (mole fraction) (in ethanol, 293.15 K): 0.000609; solubility (mole fraction) (in ethanol, 298.15 K): 0.000768; solubility (mole fraction) (in ethanol, 303.15 K): 0.000951; solubility (mole fraction) (in ethanol, 308.15 K): 0.00118; solubility (mole fraction) (in ethanol, 313.15 K): 0.00145; solubility (mole fraction) (in ethanol, 318.15 K): 0.00177; solubility (mole fraction) (in ethanol, 323.15 K): 0.00215; solubility (mole fraction) (in ethanol, 328.15 K): 0.00259; solubility (mole fraction) (in ethanol, 333.15 K): 0.00308; solubility (mole fraction) (in methanol, 278.15 K): 0.00167; solubility (mole fraction) (in methanol, 283.15 K): 0.00222; solubility (mole fraction) (in methanol, 288.15 K): 0.00287; solubility (mole fraction) (in methanol, 293.15 K): 0.00375; solubility (mole fraction) (in methanol, 298.15 K): 0.00483; solubility (mole fraction) (in methanol, 303.15 K): 0.00636; solubility (mole fraction) (in methanol, 308.15 K): 0.00803; solubility (mole fraction) (in methanol, 313.15 K): 0.0105; solubility (mole fraction) (in methanol, 318.15 K): 0.0133; solubility (mole fraction) (in methanol, 323.15 K): 0.017; solubility (mole fraction) (in methanol, 328.15 K): 0.0216; solubility (mole fraction) (in methanol, 333.15 K): 0.0277; solubility (mole fraction) (in n-propanol, 278.15 K): 0.000112; solubility (mole fraction) (in n-propanol, 283.15 K): 0.000153; solubility (mole fraction) (in n-propanol, 288.15 K): 0.000214; solubility (mole fraction) (in n-propanol, 293.15 K): 0.000301; solubility (mole fraction) (in n-propanol, 298.15 K): 0.000404; solubility (mole fraction) (in n-propanol, 303.15 K): 0.000543; solubility (mole fraction) (in n-propanol, 308.15 K): 0.000743; solubility (mole fraction) (in n-propanol, 313.15 K): 0.00102; solubility (mole fraction) (in n-propanol, 318.15 K): 0.00133; solubility (mole fraction) (in n-propanol, 323.15 K): 0.0018; solubility (mole fraction) (in n-propanol, 328.15 K): 0.00241; solubility (mole fraction) (in n-propanol, 333.15 K): 0.00321
